Experimental data as given in PMC11206245 (Pharmaceuticals, 2024).
“Also recorded” adds a separate entry of the source. Like-named read-outs stand apart in the source and are kept apart here.

What was measured:
[1] = Study A dose-escalation protocol: 17-AAG pharmacokinetics in plasma (HPLC); format: in vivo; settings: dogs; for AUC / Cmax / half-life: female, dog; for AUC: AUC0–8h; for half-life: read-out: t½ (converted)
Procedure: In Studies A and B, an intravenous catheter was placed in the cephalic vein of each animal’s right and left anterior limbs. […] Under both protocols, blood samples were centrifuged at 1500× g at 4 °C for 10 min.
For the mobile phase, acetonitrile (ACN, J.T.Baker®, Philadelphia, PA, USA) and water with 1% acetic acid (J.T.Baker®)were used. Briefly, aliquots of 200 µL of plasma or 100 µL of subcutaneous interstitial liquid were placed in a 1.5 mL microcentrifuge tube. Subsequently, 600 µL and 300 µL of ACN were added to all plasma and subcutaneous interstitial liquid samples, respectively. The mixture was vortexed for 30 s, followed by centrifugation at 3400× g for 10 min. Next, 500 µL of the plasma supernatant and 250 µL of the subcutaneous interstitial fluid were pipetted into a new vial. The method was validated in accordance with the International Council for Harmonization (ICH) technical requirements for the evaluation of medicinal products. […] No matrix interferences were observed. Two calibrated plasma curves of 17-AAG were validated with different injection volumes. […] Data acquisition and processing were performed using LabSolutions software (Version 5.3).
Cmax, half-life (t ½), distribution volume, and clearance were also determined. Data were analyzed in Excel and WinNonlin using a mono-compartmental model.

[2] = test system: healthy dogs; test: Study A dose-escalation protocol: tolerability, side and adverse effects; settings: for Animals with increases in AST in plasma: reversible
Excerpt: Control animals were the same dogs that, prior to treatment, received an intravenous injection of the placebo solution. After that, samples were collected for hematological and biochemical analyses, as described in Section 4.2, “Animal Selection and Care Procedures”.
Blood samples were collected for hematological (hemogram) and biochemical analyses, as described in Section 4.2, “Animal Selection and Care Procedures”. This study utilized a 6-step dose-escalation design for the treated dogs. […] Wash-out periods, ranging from 7 to 10 days, were observed between each dosage step. […] Blood samples were collected at various times, as specified in Section 4.4.1, “Peripheral Blood Sample Collection”. […] Peripheral blood samples for hematological and biochemical analyses were collected on days 2, 4, 7, and 10 [105].
Two separate clinical reports were used to document data obtained from clinical evaluations. A general clinical description was used to note the following information daily: whether the animal was alert, prostrate, depressed, apathetic or aggressive, drinking water, and eating food normally, as well as feces and urine evaluations and the presence of vomit. Every two days, we noted the following parameters: body temperature (°C, measured using a rectal thermometer), heart rate (beats/minute), respiratory rate (cycles/minute), external mucous membrane coloration (conjunctiva and oral), hydration (skin elasticity), superficial lymph node enlargement (submandibular and popliteal), stool consistency, presence of lesions or secretions in the eyes, presence of nasal secretion (quantity and type), coat status, presence of skin lesions and ectoparasites, temperament, presence of claudication, and coordination and balance. Hemograms were performed following blood collection. The following biochemical analyses were performed: total proteins, albumin (A), globulins (Gs), A/G ratio, total cholesterol, bilirubin, renal profile (urea and creatinine), and hepatic enzymatic profiles (ALP, ALT, AST, AF, and GGT).

[3] = Study A, plasma, single IV dose 50 mg/m^2, mean ± SD
[4] = Study A, plasma, single IV dose 100 mg/m^2, mean ± SD
[5] = Study A, plasma, single IV dose 150 mg/m^2, mean ± SD
[6] = Study A, plasma, single IV dose 200 mg/m^2, mean ± SD
[7] = Study A, plasma, single IV dose 250 mg/m^2, mean ± SD
[8] = 50 mg/m2, Study A, plasma, single IV dose 50 mg/m^2, mean ± SD
[9] = 100 mg/m2, Study A, plasma, single IV dose 100 mg/m^2, mean ± SD
[10] = 150 mg/m2, Study A, plasma, single IV dose 150 mg/m^2, mean ± SD
[11] = 200 mg/m2, Study A, plasma, single IV dose 200 mg/m^2, mean ± SD
[12] = 250 mg/m2, Study A, plasma, single IV dose 250 mg/m^2, mean ± SD
[13] = Study A, healthy dogs n = 4, single IV dose 50 mg/m^2
[14] = Study A, healthy dogs n = 4, single IV dose 100 mg/m^2
[15] = Study A, healthy dogs n = 4, single IV dose 150 mg/m^2
[16] = Study A, healthy dogs n = 4, single IV dose 200 mg/m^2
[17] = Study A, healthy dogs n = 4, single IV dose 250 mg/m^2

Structure (SMILES): C=CCNC1=C2C[C@@H](C)C[C@H](OC)[C@H](O)[C@@H](C)/C=C(\C)[C@H](OC(N)=O)[C@@H](OC)/C=C\C=C(/C)C(=O)NC(=CC1=O)C2=O [17-AAG, 17-(allylamino)-17-demethoxygeldanamycin]
- Clearance from plasma, on average ([1]; Study A, average over doses 50–250 mg/m^2): 0.026 ± 0.010 L/h/m^2
- Dose-proportionality of Cmax and AUC ([1]; Study A, plasma, IV doses 50–250 mg/m^2): linear correlation between doses ranging from 50 to 200 mg/m^2; also recorded: dose-proportionate between the 50 and 200 mg/m^2 doses
- Clearance [1, 3]: 0.04 ± 0.02 L/m^2/h
- DV (distribution volume) [1, 3]: 0.03 ± 0.02 L/m^2
- Clearance [1, 4]: 0.03 ± 0.01 L/m^2/h
- DV (distribution volume) [1, 4]: 0.02 ± 0.01 L/m^2
- Clearance [1, 5]: 0.02 ± 0.00 L/m^2/h
- DV (distribution volume) [1, 5]: 0.02 ± 0.00 L/m^2
- Clearance [1, 6]: 0.02 ± 0.00 L/m^2/h
- DV (distribution volume) [1, 6]: 0.02 ± 0.00 L/m^2
- Clearance [1, 7]: 0.03 ± 0.01 L/m^2/h
- DV (distribution volume) [1, 7]: 0.02 ± 0.00 L/m^2
- maximum plasma concentration (Cmax), lower end of range ([1]; abstract, after single IV doses 50–250 mg/m^2): 1405 ± 686 ng/mL
- AUC [1, 8]: 1480 ± 695 ng·h/mL
- Cmax ([1]; 50 mg/m2, Study A, plasma, single IV dose 50 mg/m^2, mean ± SD, read-out: Cmax): 1410 ± 687 ng/mL
- half-life [1, 8]: 32.4 ± 1.8 min
- AUC [1, 9]: 4380 ± 1630 ng·h/mL
- Cmax ([1]; 100 mg/m2, Study A, plasma, single IV dose 100 mg/m^2, mean ± SD, read-out: Cmax): 3760 ± 1420 ng/mL
- half-life [1, 9]: 36.6 ± 4.8 min
- AUC [1, 10]: 7930 ± 1550 ng·h/mL
- Cmax ([1]; 150 mg/m2, Study A, plasma, single IV dose 150 mg/m^2, mean ± SD, read-out: Cmax): 6940 ± 1340 ng/mL
- half-life [1, 10]: 35.4 ± 2.4 min
- AUC [1, 11]: 11900 ng·h/mL
- Cmax ([1]; 200 mg/m2, Study A, plasma, single IV dose 200 mg/m^2, mean ± SD, read-out: Cmax): 9440 ± 991 ng/mL
- half-life [1, 11]: 40.2 ± 3 min
- AUC [1, 12]: 9630 ± 2670 ng·h/mL
- Cmax ([1]; 250 mg/m2, Study A, plasma, single IV dose 250 mg/m^2, mean ± SD, read-out: Cmax): 8610 ± 1060 ng/mL
- half-life [1, 12]: 34.2 ± 12.6 min
- Cmax ([1]; plasma, abstract, after single IV doses 50–250 mg/m^2, read-out: maximum plasma concentration (Cmax), upper end of range): 9440 ± 991 ng/mL
- Dogs with bloody diarrhea ([2]; Study A, 200 mg/m^2): 75%
- Dogs with bloody diarrhea ([2]; Study A, 250 mg/m^2): 100%
- Animals presenting nausea during administration ([2]; Study A, dogs, 200 mg/m^2): all four animals
- Animals presenting nausea during administration ([2]; Study A, dogs, 250 mg/m^2): all four animals
- Animals with ALT alteration [2, 13]: 1 (25%) N (%)
- Animals with AST alteration [2, 13]: 0 N (%)
- Animals with bloody diarrhea [2, 13]: 0 N (%)
- Animals with diarrhea (pasty feces) [2, 13]: 0 N (%)
- Animals with erythema [2, 13]: 0 N (%)
- Animals with hyperthermia [2, 13]: 0 N (%)
- Animals with nausea [2, 13]: 0 N (%)
- Animals with pruritus [2, 13]: 0 N (%)
- Animals with vomit [2, 13]: 0 N (%)
- Animals with ALT alteration [2, 14]: 2 (50%) N (%)
- Animals with AST alteration [2, 14]: 2 (50%) N (%)
- Animals with bloody diarrhea [2, 14]: 0 N (%)
- Animals with diarrhea (pasty feces) [2, 14]: 1 (25%) N (%)
- Animals with erythema [2, 14]: 0 N (%)
- Animals with hyperthermia [2, 14]: 0 N (%)
- Animals with nausea [2, 14]: 0 N (%)
- Animals with pruritus [2, 14]: 0 N (%)
- Animals with vomit [2, 14]: 0 N (%)
- Animals with ALT alteration [2, 15]: 3 (75%) N (%)
- Animals with AST alteration [2, 15]: 2 (50%) N (%)
- Animals with bloody diarrhea [2, 15]: 0 N (%)
- Animals with diarrhea (pasty feces) [2, 15]: 1 (25%) N (%)
- Animals with erythema [2, 15]: 1 (25%) N (%)
- Animals with hyperthermia [2, 15]: 1 (25%) N (%)
- Animals with nausea [2, 15]: 0 N (%)
- Animals with pruritus [2, 15]: 1 (25%) N (%)
- Animals with vomit [2, 15]: 0 N (%)
- Animals with ALT alteration [2, 16]: 3 (75%) N (%)
- Animals with AST alteration [2, 16]: 4 (100%) N (%)
- Animals with bloody diarrhea [2, 16]: 3 (75%) N (%)
- Animals with diarrhea (pasty feces) [2, 16]: 1 (25%) N (%)
- Animals with erythema [2, 16]: 2 (50%) N (%)
- Animals with hyperthermia [2, 16]: 0 N (%)
- Animals with nausea [2, 16]: 4 (100%) N (%)
- Animals with pruritus [2, 16]: 3 (75%) N (%)
- Animals with vomit [2, 16]: 1 (25%) N (%)
- Animals with ALT alteration [2, 17]: 4 (100%) N (%)
- Animals with AST alteration [2, 17]: 4 (100%) N (%)
- Animals with bloody diarrhea [2, 17]: 4 (100%) N (%)
- Animals with diarrhea (pasty feces) [2, 17]: 1 (25%) N (%)
- Animals with erythema [2, 17]: 4 (100%) N (%)
- Animals with hyperthermia [2, 17]: 1 (25%) N (%)
- Animals with nausea [2, 17]: 4 (100%) N (%)
- Animals with pruritus [2, 17]: 4 (100%) N (%)
- Animals with vomit [2, 17]: 1 (25%) N (%)
- Animals with increases in AST in plasma ([2]; dogs, 100 mg/m^2): 50%
- Animals with increases in AST in plasma ([2]; dogs, 150 mg/m^2): 50%
- Animals with increases in AST in plasma ([2]; dogs, 200 mg/m^2): 100%
- Animals with increases in AST in plasma ([2]; dogs, 250 mg/m^2): 100%
- maximum tolerable dose ([2]; dogs, Study A, IV): 150 mg/m^2
